Assay results: ChEMBL document CHEMBL1201862, “PubChem BioAssay data set” (2004)
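Assay format: 96-well plates, 48-hour exposure. Here, GI50 denotes the concentration required for 50% inhibition of growth.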 Active and inactive are the calls of the source. Rule as the data show it: active = GI50 up to about 1.1 µM and inactive = higher.

Key:
Assay in all cases: NCI-60 cell line screen, 48 h
786-0 = tested on: 786-0
A498 = tested on: A498
A549 = tested on: A549
ACHN = tested on: ACHN
BT-549 = tested on: BT-549
DU-145 = tested on: DU-145
EKVX = tested on: EKVX
HCC 2998 = tested on: HCC 2998
HCT-116 = tested on: HCT-116
HCT-15 = tested on: HCT-15
HL-60 = tested on: HL-60
HOP-62 = tested on: HOP-62
HOP-92 = tested on: HOP-92
HT-29 = tested on: HT-29
Hs-578T = tested on: Hs-578T
IGROV-1 = tested on: IGROV-1
K562 = tested on: K562
KM12 = tested on: KM12
LOX IMVI = tested on: LOX IMVI
M14 = tested on: M14
MCF7 = tested on: MCF7
MDA-MB-231 = tested on: MDA-MB-231
MDA-MB-435 = tested on: MDA-MB-435
MDA-N = tested on: MDA-N
MOLT-4 = tested on: MOLT-4
Malme-3M = tested on: Malme-3M
NCI-H226 = tested on: NCI-H226
NCI-H460 = tested on: NCI-H460
NCI-H522 = tested on: NCI-H522
NCI/ADR-RES = tested on: NCI/ADR-RES
OVCAR-3 = tested on: OVCAR-3
OVCAR-4 = tested on: OVCAR-4
OVCAR-5 = tested on: OVCAR-5
OVCAR-8 = tested on: OVCAR-8
PC-3 = tested on: PC-3
RPMI-8226 = tested on: RPMI-8226
SF-268 = tested on: SF-268
SF-295 = tested on: SF-295
SF-539 = tested on: SF-539
SK-MEL-28 = tested on: SK-MEL-28
SK-MEL-2 = tested on: SK-MEL-2
SK-OV-3 = tested on: SK-OV-3
SN12C = tested on: SN12C
SNB-19 = tested on: SNB-19
SNB-75 = tested on: SNB-75
SR = tested on: SR
SW-620 = tested on: SW-620
T47D = tested on: T47D
TK-10 = tested on: TK-10
U-251 = tested on: U-251
UACC-257 = tested on: UACC-257
UACC-62 = tested on: UACC-62
UO-31 = tested on: UO-31
CAKI-1 = tested on: CAKI-1
CCRF-CEM = tested on: CCRF-CEM
COLO 205 = tested on: COLO 205
NCI-H23 = tested on: NCI-H23
RXF 393 = tested on: RXF 393
SK-MEL-5 = tested on: SK-MEL-5

Question: For `COc1ccc(Cc2cc(Cc3ccc(OC)cc3)cc(Cc3ccc(OC)cc3)c2)cc1`, which GI50 (786-0) is on record?
Answer: > 100 µM (inactive)

Question: What about the GI50 (A498) of the same molecule?
Answer: > 100 µM (inactive)

Question: And the GI50 (A549)?
Answer: > 100 µM (inactive)

Question: And the GI50 (ACHN)?
Answer: > 100 µM (inactive)

Question: And the GI50 (BT-549)?
Answer: > 100 µM (inactive)

Question: And the GI50 (DU-145)?
Answer: > 100 µM (inactive)

Question: And the GI50 (EKVX)?
Answer: > 100 µM (inactive)

Question: And the GI50 (HCC 2998)?
Answer: > 100 µM (inactive)

Question: What about the GI50 (HCT-116) of the same molecule?
Answer: > 100 µM (inactive)

Question: What about the GI50 (HCT-15) of the same molecule?
Answer: > 100 µM

Question: And the GI50 (HL-60)?
Answer: > 100 µM (inactive)

Question: What about the GI50 (HOP-62) of the same molecule?
Answer: > 100 µM (inactive)

Question: What about the GI50 (HOP-92) of the same molecule?
Answer: > 100 µM (inactive)

Question: What about the GI50 (HT-29) of the same molecule?
Answer: > 100 µM (inactive)

Question: And the GI50 (Hs-578T)?
Answer: > 100 µM (inactive)

Question: And the GI50 (IGROV-1)?
Answer: > 100 µM (inactive)

Question: What about the GI50 (K562) of the same molecule?
Answer: > 100 µM (inactive)

Question: And the GI50 (KM12)?
Answer: > 100 µM (inactive)

Question: And the GI50 (LOX IMVI)?
Answer: > 100 µM (inactive)

Question: And the GI50 (M14)?
Answer: > 100 µM (inactive)

Question: What about the GI50 (MCF7) of the same molecule?
Answer: > 100 µM (inactive)

Question: What about the GI50 (MDA-MB-231) of the same molecule?
Answer: > 100 µM (inactive)

Question: And the GI50 (MDA-MB-435)?
Answer: 13.6 µM (inactive)

Question: What about the GI50 (MDA-N) of the same molecule?
Answer: 6.58 µM (inactive)

Question: And the GI50 (MOLT-4)?
Answer: > 100 µM (inactive)

Question: And the GI50 (Malme-3M)?
Answer: 56.8 µM (inactive)

Question: What about the GI50 (NCI-H226) of the same molecule?
Answer: > 100 µM (inactive)

Question: And the GI50 (NCI-H460)?
Answer: > 100 µM (inactive)

Question: What about the GI50 (NCI-H522) of the same molecule?
Answer: > 100 µM (inactive)

Question: What about the GI50 (NCI/ADR-RES) of the same molecule?
Answer: > 100 µM (inactive)

Question: And the GI50 (OVCAR-3)?
Answer: > 100 µM (inactive)

Question: And the GI50 (OVCAR-4)?
Answer: > 100 µM (inactive)

Question: And the GI50 (OVCAR-5)?
Answer: > 100 µM (inactive)

Question: And the GI50 (OVCAR-8)?
Answer: > 100 µM (inactive)

Question: And the GI50 (PC-3)?
Answer: > 100 µM (inactive)

Question: And the GI50 (RPMI-8226)?
Answer: > 100 µM (inactive)

Question: What about the GI50 (SF-268) of the same molecule?
Answer: > 100 µM (inactive)

Question: What about the GI50 (SF-295) of the same molecule?
Answer: > 100 µM (inactive)

Question: And the GI50 (SF-539)?
Answer: > 100 µM (inactive)

Question: What about the GI50 (SK-MEL-28) of the same molecule?
Answer: > 100 µM (inactive)

Question: What about the GI50 (SK-MEL-2) of the same molecule?
Answer: > 100 µM (inactive)

Question: And the GI50 (SK-OV-3)?
Answer: > 100 µM (inactive)

Question: And the GI50 (SN12C)?
Answer: > 100 µM (inactive)

Question: And the GI50 (SNB-19)?
Answer: > 100 µM (inactive)

Question: What about the GI50 (SNB-75) of the same molecule?
Answer: > 100 µM (inactive)

Question: What about the GI50 (SR) of the same molecule?
Answer: 89.5 µM (inactive)

Question: What about the GI50 (SW-620) of the same molecule?
Answer: > 100 µM (inactive)

Question: And the GI50 (T47D)?
Answer: > 100 µM (inactive)

Question: And the GI50 (TK-10)?
Answer: > 100 µM (inactive)

Question: What about the GI50 (U-251) of the same molecule?
Answer: > 100 µM (inactive)

Question: And the GI50 (UACC-257)?
Answer: > 100 µM (inactive)

Question: And the GI50 (UACC-62)?
Answer: > 100 µM (inactive)

Question: And the GI50 (UO-31)?
Answer: > 100 µM (inactive)

Question: What does the source list for `COC(=O)c1ccccc1C#CC#Cc1ccccc1C(=O)OC`?
Answer: GI50 (786-0): > 10 µM (inactive); GI50 (A498): > 10 µM (inactive); GI50 (A549): > 10 µM (inactive); GI50 (ACHN): > 10 µM (inactive); GI50 (BT-549): > 10 µM (inactive); GI50 (CAKI-1): > 10 µM (inactive); GI50 (CCRF-CEM): > 10 µM (inactive); GI50 (COLO 205): 1.69 µM (inactive); GI50 (DU-145): > 10 µM (inactive); GI50 (EKVX): > 10 µM (inactive); GI50 (HCC 2998): > 10 µM (inactive); GI50 (HCT-116): > 10 µM (inactive); GI50 (HCT-15): 7.35 µM; GI50 (HL-60): 4.76 µM (inactive); GI50 (HOP-62): > 10 µM (inactive); GI50 (HT-29): 6.4 µM (inactive); GI50 (Hs-578T): > 10 µM (inactive); GI50 (IGROV-1): > 10 µM (inactive); GI50 (K562): 8.57 µM (inactive); GI50 (KM12): 3.19 µM (inactive); GI50 (LOX IMVI): 7 µM (inactive); GI50 (M14): > 10 µM (inactive); GI50 (MCF7): 0.611 µM (active); GI50 (MDA-MB-231): > 10 µM (inactive); GI50 (MDA-MB-435): > 10 µM (inactive); GI50 (MDA-N): > 10 µM (inactive); GI50 (MOLT-4): > 10 µM (inactive); GI50 (Malme-3M): 6.79 µM (inactive); GI50 (NCI-H226): 5.48 µM (inactive); GI50 (NCI-H23): > 10 µM (inactive); GI50 (NCI-H460): > 10 µM (inactive); GI50 (NCI-H522): > 10 µM (inactive); GI50 (NCI/ADR-RES): > 10 µM (inactive); GI50 (OVCAR-3): 2.55 µM (inactive); GI50 (OVCAR-4): 2.9 µM (inactive); GI50 (OVCAR-5): > 10 µM (inactive); GI50 (OVCAR-8): 6.21 µM (inactive); GI50 (PC-3): 9.06 µM (inactive); GI50 (RPMI-8226): > 10 µM (inactive); GI50 (RXF 393): > 10 µM (inactive); GI50 (SF-268): > 10 µM (inactive); GI50 (SF-295): > 10 µM (inactive); GI50 (SF-539): > 10 µM (inactive); GI50 (SK-MEL-28): > 10 µM (inactive); GI50 (SK-MEL-2): > 10 µM (inactive); GI50 (SK-MEL-5): > 10 µM (inactive); GI50 (SK-OV-3): > 10 µM (inactive); GI50 (SN12C): > 10 µM (inactive); GI50 (SNB-19): > 10 µM (inactive); GI50 (SR): > 10 µM (inactive); GI50 (SW-620): > 10 µM (inactive); GI50 (T47D): > 10 µM (inactive); GI50 (TK-10): > 10 µM (inactive); GI50 (U-251): > 10 µM (inactive); GI50 (UACC-257): > 10 µM (inactive); GI50 (UACC-62): > 10 µM (inactive); GI50 (UO-31): > 10 µM (inactive)
